{"source": "patent US12077503B2", "about": "“Substituted cyclic amides and their use as herbicides” (FMC CORPORATION, priority 2015, dated 2024)", "format_in_all_cases": "in vivo", "key": {"[1]": {"system": "ivy-leaved morning glory (Ipomoea hederacea)", "test": "Test G Pre-Emergence Protocol", "conditions": "Ipomoea, pre-emergence, 312 h, evaluated after 13 days", "summary_of_the_method": "(§1)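 Seeds were sown in standard soil and kept one day in a glasshouse (24/16° C day/night, 14 h light, 65% humidity), then sprayed with compound in acetone/water (50:50) containing 0.5% Tween 20 at 15.625, 62.5 or 250 g/ha. Damage was scored after 13 days (0 = none, 100 = total).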"}, "[2]": {"system": "redroot pigweed (Amaranthus retroflexus)", "test": "Test G Pre-Emergence Protocol", "conditions": "Amaranthus retroflexus, pre-emergence, 312 h, evaluated after 13 days", "summary_of_the_method": "as §1"}, "corn (Zea mays) [3]": {"system": "corn (Zea mays)", "test": "Test G Pre-Emergence Protocol", "conditions": "Zea mays, pre-emergence, 312 h, evaluated after 13 days", "summary_of_the_method": "as §1"}, "[4]": {"system": "velvetleaf (Abutilon theophrasti)", "test": "Test G Pre-Emergence Protocol", "conditions": "Abutilon theophrasti, pre-emergence, 312 h, evaluated after 13 days", "summary_of_the_method": "as §1"}, "[5]": {"system": "barnyardgrass (Echinochloa crus-galli)", "test": "Test G Pre-Emergence Protocol", "conditions": "Echinochloa crus-galli, pre-emergence, 312 h, evaluated after 13 days", "summary_of_the_method": "as §1"}, "[6]": {"system": "giant foxtail (Setaria faberi)", "test": "Test G Pre-Emergence Protocol", "conditions": "Setaria faberi, pre-emergence, 312 h, evaluated after 13 days", "summary_of_the_method": "as §1"}, "[7]": {"system": "ivy-leaved morning glory (Ipomoea hederacea)", "test": "Test G Post-Emergence Protocol", "conditions": "Ipomoea, post-emergence, 312 h", "summary_of_the_method": "(§2)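 Pot-grown seedlings, 8 days old, raised in a glasshouse at 24/16 °C day/night with 14 h light and 65% humidity, were sprayed post-emergence with test compound in acetone/water (50:50) plus 0.5% Tween 20 at 15.625, 62.5 or 250 g/ha. Damage was scored visually 13 days later on a 0–100 scale (100 = total damage).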"}, "[8]": {"system": "redroot pigweed (Amaranthus retroflexus)", "test": "Test G Post-Emergence Protocol", "conditions": "Amaranthus retroflexus, post-emergence, 312 h", "summary_of_the_method": "as §2"}, "corn (Zea mays) [9]": {"system": "corn (Zea mays)", "test": "Test G Post-Emergence Protocol", "conditions": "Zea mays, post-emergence, 312 h", "summary_of_the_method": "as §2"}, "[10]": {"system": "velvetleaf (Abutilon theophrasti)", "test": "Test G Post-Emergence Protocol", "conditions": "Abutilon theophrasti, post-emergence, 312 h", "summary_of_the_method": "as §2"}, "[11]": {"system": "barnyardgrass (Echinochloa crus-galli)", "test": "Test G Post-Emergence Protocol", "conditions": "Echinochloa crus-galli, post-emergence, 312 h", "summary_of_the_method": "as §2"}, "[12]": {"system": "giant foxtail (Setaria faberi)", "test": "Test G Post-Emergence Protocol", "conditions": "Setaria faberi, post-emergence, 312 h", "summary_of_the_method": "as §2"}}, "data": [{"smiles": "CN1C[C@H](c2cccc(C#N)c2)[C@@H](C(=O)Nc2ccccc2F)C1=O", "note": "(racemic) [Compound 1471]", "values": [{"measurement": "pest or weed control at 15.625 g/ha", "setting": "[1]; 15.625 g ai/ha, read-out: Morning-glory, Ivy-leaved damage rating (100=total damage to plant; 0=no damage to plant)", "result": 0, "unit": "%"}, {"measurement": "pest or weed control at 62.5 g/ha", "setting": "[1]; 62.5 g ai/ha, 100=total damage to plant, 0=no damage to plant, read-out: plant damage rating, Morningglory, Ivy-leaved", "result": 0, "unit": "%"}, {"measurement": "pest or weed control at 250 g/ha", "setting": "[1]; 250 g ai/ha, read-out: Morningglory, Ivy-leaved damage rating (100=total damage to plant; 0=no damage to plant)", "result": 20, "unit": "%"}, {"measurement": "pest or weed control at 15.625 g/ha", "setting": "[2]; 15.625 g ai/ha, read-out: Pigweed, Redroot damage rating (100=total damage to plant; 0=no damage to plant)", "result": 0, "unit": "%"}, {"measurement": "pest or weed control at 62.5 g/ha", "setting": "[2]; 62.5 g ai/ha, 100=total damage to plant, 0=no damage to plant, read-out: plant damage rating, Pigweed, Redroot", "result": 0, "unit": "%"}, {"measurement": "pest or weed control at 250 g/ha", "setting": "[2]; 250 g ai/ha, read-out: Pigweed, Redroot damage rating (100=total damage to plant; 0=no damage to plant)", "result": 0, "unit": "%"}, {"measurement": "plant injury at 15.625 g/ha", "setting": "corn (Zea mays) [3]; 15.625 g ai/ha, read-out: Corn damage rating (100=total damage to plant; 0=no damage to plant)", "result": 0, "unit": "%"}, {"measurement": "plant injury at 62.5 g/ha", "setting": "corn (Zea mays) [3]; 62.5 g ai/ha, 100=total damage to plant, 0=no damage to plant, read-out: plant damage rating, Corn", "result": 0, "unit": "%"}, {"measurement": "plant injury at 250 g/ha", "setting": "corn (Zea mays) [3]; 250 g ai/ha, read-out: Corn damage rating (100=total damage to plant; 0=no damage to plant)", "result": 0, "unit": "%"}, {"measurement": "pest or weed control at 15.625 g/ha", "setting": "[4]; 15.625 g ai/ha, read-out: Velvetleaf damage rating (100=total damage to plant; 0=no damage to plant)", "result": 0, "unit": "%"}, {"measurement": "pest or weed control at 62.5 g/ha", "setting": "[4]; 62.5 g ai/ha, 100=total damage to plant, 0=no damage to plant, read-out: plant damage rating, Velvetleaf", "result": 0, "unit": "%"}, {"measurement": "pest or weed control at 250 g/ha", "setting": "[4]; 250 g ai/ha, read-out: Velvetleaf damage rating (100=total damage to plant; 0=no damage to plant)", "result": 0, "unit": "%"}, {"measurement": "pest or weed control at 15.625 g/ha", "setting": "[5]; 15.625 g ai/ha, read-out: Barnyard grass damage rating (100=total damage to plant; 0=no damage to plant)", "result": 10, "unit": "%"}, {"measurement": "pest or weed control at 62.5 g/ha", "setting": "[5]; 62.5 g ai/ha, 100=total damage to plant, 0=no damage to plant, read-out: plant damage rating, Barnyardgrass", "result": 70, "unit": "%"}, {"measurement": "pest or weed control at 250 g/ha", "setting": "[5]; 250 g ai/ha, read-out: Barnyardgrass damage rating (100=total damage to plant; 0=no damage to plant)", "result": 90, "unit": "%"}, {"measurement": "pest or weed control at 15.625 g/ha", "setting": "[6]; 15.625 g ai/ha, read-out: Foxtail, Giant damage rating (100=total damage to plant; 0=no damage to plant)", "result": 40, "unit": "%"}, {"measurement": "pest or weed control at 62.5 g/ha", "setting": "[6]; 62.5 g ai/ha, 100=total damage to plant, 0=no damage to plant, read-out: plant damage rating, Foxtail, Giant", "result": 80, "unit": "%"}, {"measurement": "pest or weed control at 250 g/ha", "setting": "[6]; 250 g ai/ha, read-out: Foxtail, Giant damage rating (100=total damage to plant; 0=no damage to plant)", "result": 90, "unit": "%"}, {"measurement": "pest or weed control at 15.625 g/ha", "setting": "[7]; 15.625 g ai/ha, evaluated after 13 days (100=total damage to plant; 0=no damage to plant), read-out: Morningglory, Ivy-leaved damage rating", "result": 10, "unit": "%"}, {"measurement": "pest or weed control at 62.5 g/ha", "setting": "[7]; 62.5 g ai/ha, evaluated after 13 days, read-out: Morningglory, Ivy-leaved damage rating (100=total damage to plant; 0=no damage to plant)", "result": 0, "unit": "%"}, {"measurement": "pest or weed control at 250 g/ha", "setting": "[7]; 250 g ai/ha, evaluated after 13 days, read-out: damage to plant, Morningglory, Ivy-leaved (100=total damage to plant; 0=no damage to plant)", "result": 20, "unit": "%"}, {"measurement": "pest or weed control at 15.625 g/ha", "setting": "[8]; 15.625 g ai/ha, evaluated after 13 days (100=total damage to plant; 0=no damage to plant), read-out: Pigweed, Redroot damage rating", "result": 10, "unit": "%"}, {"measurement": "pest or weed control at 62.5 g/ha", "setting": "[8]; 62.5 g ai/ha, evaluated after 13 days, read-out: Pigweed, Redroot damage rating (100=total damage to plant; 0=no damage to plant)", "result": 0, "unit": "%"}, {"measurement": "pest or weed control at 250 g/ha", "setting": "[8]; 250 g ai/ha, evaluated after 13 days, read-out: damage to plant, Pigweed, Redroot (100=total damage to plant; 0=no damage to plant)", "result": 20, "unit": "%"}, {"measurement": "plant injury at 15.625 g/ha", "setting": "corn (Zea mays) [9]; 15.625 g ai/ha, evaluated after 13 days (100=total damage to plant; 0=no damage to plant), read-out: Corn damage rating", "result": 10, "unit": "%"}, {"measurement": "plant injury at 62.5 g/ha", "setting": "corn (Zea mays) [9]; 62.5 g ai/ha, evaluated after 13 days, read-out: Corn damage rating (100=total damage to plant; 0=no damage to plant)", "result": 0, "unit": "%"}, {"measurement": "plant injury at 250 g/ha", "setting": "corn (Zea mays) [9]; 250 g ai/ha, evaluated after 13 days, read-out: damage to plant, Corn (100=total damage to plant; 0=no damage to plant)", "result": 0, "unit": "%"}, {"measurement": "pest or weed control at 15.625 g/ha", "setting": "[10]; 15.625 g ai/ha, evaluated after 13 days (100=total damage to plant; 0=no damage to plant), read-out: Velvetleaf damage rating", "result": 10, "unit": "%"}, {"measurement": "pest or weed control at 62.5 g/ha", "setting": "[10]; 62.5 g ai/ha, evaluated after 13 days, read-out: Velvetleaf damage rating (100=total damage to plant; 0=no damage to plant)", "result": 0, "unit": "%"}, {"measurement": "pest or weed control at 250 g/ha", "setting": "[10]; 250 g ai/ha, evaluated after 13 days, read-out: damage to plant, Velvetleaf (100=total damage to plant; 0=no damage to plant)", "result": 10, "unit": "%"}, {"measurement": "pest or weed control at 15.625 g/ha", "setting": "[11]; 15.625 g ai/ha, evaluated after 13 days (100=total damage to plant; 0=no damage to plant), read-out: Barnyardgrass damage rating", "result": 30, "unit": "%"}, {"measurement": "pest or weed control at 62.5 g/ha", "setting": "[11]; 62.5 g ai/ha, evaluated after 13 days, read-out: Barnyardgrass damage rating (100=total damage to plant; 0=no damage to plant)", "result": 30, "unit": "%"}, {"measurement": "pest or weed control at 250 g/ha", "setting": "[11]; 250 g ai/ha, evaluated after 13 days, read-out: damage to plant, Barnyardgrass (100=total damage to plant; 0=no damage to plant)", "result": 50, "unit": "%"}, {"measurement": "pest or weed control at 15.625 g/ha", "setting": "[12]; 15.625 g ai/ha, evaluated after 13 days (100=total damage to plant; 0=no damage to plant), read-out: Foxtail, Giant damage rating", "result": 10, "unit": "%"}, {"measurement": "pest or weed control at 62.5 g/ha", "setting": "[12]; 62.5 g ai/ha, evaluated after 13 days, read-out: Foxtail, Giant damage rating (100=total damage to plant; 0=no damage to plant)", "result": 60, "unit": "%"}, {"measurement": "pest or weed control at 250 g/ha", "setting": "[12]; 250 g ai/ha, evaluated after 13 days, read-out: damage to plant, Foxtail, Giant (100=total damage to plant; 0=no damage to plant)", "result": 70, "unit": "%"}]}]}
